Source: ChEMBL document CHEMBL1201862, “PubChem BioAssay data set” (2004)
Calls of active or inactive are those of the source.

Assays:
Beta-galactosidase = Beta-galactosidase (Escherichia coli, UniProt Q8VNN2); test: PubChem AID 485352; assay type: functional
[1] = target: T1, Type-1 angiotensin II receptor (Homo sapiens, UniProt P30556); test: antagonism of angiotensin II type 1 receptor – cell-based, uHTS hits, selectivity assay for APJ receptor antagonist project, dose response (AID 463214); assay type: functional;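 note: antagonist potency against angiotensin II stimulated AT1 response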
T1 sequence (P30556 whole entry): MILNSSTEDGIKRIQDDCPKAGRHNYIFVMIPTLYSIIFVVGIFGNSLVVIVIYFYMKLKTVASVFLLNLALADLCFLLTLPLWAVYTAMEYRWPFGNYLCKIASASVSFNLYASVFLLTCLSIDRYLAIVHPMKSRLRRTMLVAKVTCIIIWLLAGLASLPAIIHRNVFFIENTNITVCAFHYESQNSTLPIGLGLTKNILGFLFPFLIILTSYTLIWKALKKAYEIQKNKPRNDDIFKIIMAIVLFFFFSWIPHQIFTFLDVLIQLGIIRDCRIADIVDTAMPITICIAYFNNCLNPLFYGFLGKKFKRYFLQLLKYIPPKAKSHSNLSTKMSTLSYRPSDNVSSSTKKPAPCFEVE

[2] = target: T2, DNA repair and recombination protein RAD54-like (Homo sapiens, UniProt Q92698); test: RAD54 Holliday junction migration blockers – biochemical, fluorescence, cherry-picked samples, dose series, confirmation (AID 651657); assay type: functional
T2 sequence (Q92698 whole entry): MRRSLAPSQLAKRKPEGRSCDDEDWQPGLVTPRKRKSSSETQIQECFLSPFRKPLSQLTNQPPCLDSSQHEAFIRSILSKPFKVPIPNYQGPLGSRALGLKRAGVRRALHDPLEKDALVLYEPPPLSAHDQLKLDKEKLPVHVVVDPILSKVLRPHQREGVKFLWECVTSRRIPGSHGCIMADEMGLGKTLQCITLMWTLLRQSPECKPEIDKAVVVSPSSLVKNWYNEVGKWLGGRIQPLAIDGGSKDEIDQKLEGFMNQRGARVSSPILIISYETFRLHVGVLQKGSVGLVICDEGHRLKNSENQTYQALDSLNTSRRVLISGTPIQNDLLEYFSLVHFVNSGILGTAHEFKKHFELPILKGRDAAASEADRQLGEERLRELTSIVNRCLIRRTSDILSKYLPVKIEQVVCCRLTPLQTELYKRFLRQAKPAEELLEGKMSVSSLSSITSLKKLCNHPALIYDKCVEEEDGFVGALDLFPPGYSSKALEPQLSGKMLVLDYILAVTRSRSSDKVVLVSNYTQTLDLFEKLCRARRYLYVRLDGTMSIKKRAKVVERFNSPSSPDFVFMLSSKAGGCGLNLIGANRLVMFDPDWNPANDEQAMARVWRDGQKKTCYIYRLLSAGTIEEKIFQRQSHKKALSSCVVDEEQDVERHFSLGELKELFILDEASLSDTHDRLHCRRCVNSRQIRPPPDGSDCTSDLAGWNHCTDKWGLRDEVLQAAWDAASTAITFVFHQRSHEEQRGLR

[3] = Trypanosoma cruzi growth suppression in host cells – NIH3T3 host cells, beta-gal luminescence, confirmation (AID 2044); assay type: functional, cell-based;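 note: intracellular parasites grown in NIH/3T3 mouse fibroblasts as host cells; luminescent beta-galactosidase reporter signal from transgenic T. cruzi replicating inside host cells; inhibitors lower the luminescence signal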
[4] = viability of PTEN-deleted HCT116 cells – cell-based, HCT116 PTEN knockout, dose response (AID 1047); assay type: functional;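 note: HCT116 colon tumor cells with PTEN knocked out; cells exposed to compound for 60 hours before readout; potency for loss of cell viability measured by luminescence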
[5] = NIH3T3 cell viability loss – ATP luminescence, mouse fibroblasts, counter-screen, dose response (AID 2010); assay type: functional, cell-based;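 note: cells exposed to compound for about 90 hours before reading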
[6] = viability of HCT116 lacking mutant beta-catenin – cell-based, human colon tumor, dose response (AID 1045); assay type: functional;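 note: HCT116 colon tumor cells with beta catenin knocked out; cells exposed to compound for 60 hours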
Bcl-2-related protein A1 = target: T3, Bcl-2-related protein A1 (Mus musculus, UniProt Q07440); assay type: functional;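 note: confirmatory dose–response counterscreen on Bfl-1, used to check hits from a UBC13 polyubiquitin inhibitor campaign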
T3 sequence (Q07440 whole entry): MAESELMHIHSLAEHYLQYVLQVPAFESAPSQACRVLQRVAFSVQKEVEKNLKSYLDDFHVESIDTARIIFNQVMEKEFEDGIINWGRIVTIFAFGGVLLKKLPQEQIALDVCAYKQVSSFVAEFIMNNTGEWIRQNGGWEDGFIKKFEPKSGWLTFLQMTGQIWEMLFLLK

[7] = target: T4, Ubiquitin-conjugating enzyme E2 N (Homo sapiens, UniProt P61088); assay type: functional
T4 sequence (P61088 whole entry): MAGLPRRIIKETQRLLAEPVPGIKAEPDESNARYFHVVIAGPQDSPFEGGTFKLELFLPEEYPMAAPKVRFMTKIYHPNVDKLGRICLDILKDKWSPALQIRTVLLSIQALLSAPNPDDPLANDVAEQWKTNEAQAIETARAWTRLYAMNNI

[8] = target: T5, Short transient receptor potential channel 4 (Mus musculus, UniProt Q9QUQ5); test: calcium entry via TRPC4 opening agents – cell-based, HEK293 TRPC4/mu-opioid, Fluo-4 calcium, dose response (AID 434937); assay type: functional
T5 sequence (Q9QUQ5 whole entry): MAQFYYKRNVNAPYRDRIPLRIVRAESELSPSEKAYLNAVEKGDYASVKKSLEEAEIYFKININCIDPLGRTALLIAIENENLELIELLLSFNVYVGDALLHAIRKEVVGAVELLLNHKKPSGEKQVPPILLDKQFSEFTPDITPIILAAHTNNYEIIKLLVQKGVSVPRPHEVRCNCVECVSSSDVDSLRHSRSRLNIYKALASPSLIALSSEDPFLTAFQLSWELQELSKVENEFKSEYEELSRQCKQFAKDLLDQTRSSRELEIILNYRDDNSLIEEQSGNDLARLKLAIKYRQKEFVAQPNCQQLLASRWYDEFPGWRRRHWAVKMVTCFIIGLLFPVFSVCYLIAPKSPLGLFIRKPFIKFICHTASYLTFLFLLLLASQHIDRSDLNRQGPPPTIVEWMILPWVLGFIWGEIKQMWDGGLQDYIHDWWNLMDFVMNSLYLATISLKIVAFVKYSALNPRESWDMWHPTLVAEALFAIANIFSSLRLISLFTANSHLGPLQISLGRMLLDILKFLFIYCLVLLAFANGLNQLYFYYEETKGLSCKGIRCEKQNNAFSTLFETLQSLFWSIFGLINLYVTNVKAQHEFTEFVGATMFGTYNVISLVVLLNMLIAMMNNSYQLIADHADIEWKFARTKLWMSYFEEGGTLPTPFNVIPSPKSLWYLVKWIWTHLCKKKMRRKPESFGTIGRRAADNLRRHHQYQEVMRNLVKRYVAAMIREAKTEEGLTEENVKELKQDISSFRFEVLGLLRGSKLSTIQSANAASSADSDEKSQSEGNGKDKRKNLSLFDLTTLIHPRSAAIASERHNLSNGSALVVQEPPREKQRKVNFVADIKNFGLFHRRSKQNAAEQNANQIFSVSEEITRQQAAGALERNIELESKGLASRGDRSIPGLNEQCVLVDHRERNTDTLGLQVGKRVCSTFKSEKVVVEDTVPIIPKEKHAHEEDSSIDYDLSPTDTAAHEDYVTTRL

[9] = target: T4, Ubiquitin-conjugating enzyme E2 N; assay type: functional; remark: listed apart in the source
[10] = target: Peroxisome proliferator-activated receptor gamma/Nuclear receptor coactivator 1 (Homo sapiens, UniProt P37231); test: TR-FRET dose response biochemical High Throughput Screening assay for agonists of the steroid receptor coactivator 1 (SRC-1) recruitment by the peroxisome proliferator-activated receptor gamma (PPAR gamma): non-selective agonists. [Related pubchem assays (depositor defined):AID1300, AID1808, AID504735, AID631]; assay type: protein assay
[11] = target: Peroxisome proliferator-activated receptor gamma/Nuclear receptor coactivator 3 (Homo sapiens, UniProt P37231); test: TR-FRET dose response biochemical High Throughput Screening assay for agonists of the steroid receptor coactivator 3 (SRC-3) recruitment by the peroxisome proliferator-activated receptor gamma (PPAR gamma): non-selective agonists. [Related pubchem assays: 1301 (Confirmation screen.), 1048 (Primary screen.)]; assay type: functional
[12] = target: Peroxisome proliferator-activated receptor gamma/Nuclear receptor coactivator 2 (Homo sapiens, UniProt P37231); test: TR-FRET dose response biochemical High Throughput Screening assay for agonists of the steroid receptor coactivator 2 (SRC-2) recruitment by the peroxisome proliferator-activated receptor gamma (PPAR gamma): non-selective agonists. [Related pubchem assays: 1297, 1032 ]; assay type: functional
BJ [13] = test: BJ-TERT fibroblast viability loss – cell-based, RAS-independent, luminescence, dose response (AID 1933); assay type: functional; settings: Homo sapiens
BJ [14] = test: cells; assay type: functional, cell-based; settings: Homo sapiens
BJ [15] = test: BJ-TERT-LT-ST fibroblast viability loss – cell-based, RAS-independent, luminescence, dose response (AID 1935); assay type: functional; settings: Homo sapiens;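 note: BJ fibroblasts immortalized with TERT plus LT and ST oncogenes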
[16] = DRD fibroblast viability loss – cell-based, non-viral oncogenic, luminescence, dose response (AID 1934); assay type: functional; settings: Homo sapiens
[17] = target: DNA (cytosine-5)-methyltransferase 1 (Homo sapiens, UniProt P26358); test: inhibition of DNA methylation by DNMT1 – biochemical, fluorescent molecular beacon, confirmation (AID 602386); assay type: functional
Cytochrome P450 2C19 = Cytochrome P450 2C19 (Homo sapiens, UniProt P33261); test: Cytochrome panel assay with activity outcomes. Panel member name: p450-cyp2c19 Compounds with AC50 equal or less than 10 uM are considered active; assay type: functional
[18] = target: T5, Short transient receptor potential channel 4; test: block of DAMGO-driven TRPC4 calcium entry – cell-based, HEK293 TRPC4/mu-opioid, Fluo-4 calcium, dose response (AID 434942); assay type: functional;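 note: potency of inhibitors blocking the TRPC4 calcium response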
[19] = tested on: Streptococcus sp. 'group A'; test: Streptococcus pyogenes SK(-)GAS viability under kanamycin – luminescence, BacTiterGlo, confirmation, counter-screen for streptokinase expression inhibitor project, dose response (AID 1900); assay type: functional, organism-based
Streptococcus = test: GAS UMAA2166 growth inhibition – luminescence, BacTiterGlo, counter-screen for streptokinase expression inhibitor project, dose response (AID 1915); assay type: functional, organism-based;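 note: potency for reduction of bacterial viability or growth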
[20] = target: T6, Microphthalmia-associated transcription factor (Homo sapiens, UniProt O75030); test: reducers of TRPM1 reporter luminescence, concentration series – cell-based, SK-MEL-5, cherry-picked, set 3, MITF inhibitor project, dose response (AID 493073); assay type: functional;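 note: SK-MEL-5 melanoma cells with luciferase driven by the MITF target TRPM1 promoter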
T6 sequence (O75030 whole entry): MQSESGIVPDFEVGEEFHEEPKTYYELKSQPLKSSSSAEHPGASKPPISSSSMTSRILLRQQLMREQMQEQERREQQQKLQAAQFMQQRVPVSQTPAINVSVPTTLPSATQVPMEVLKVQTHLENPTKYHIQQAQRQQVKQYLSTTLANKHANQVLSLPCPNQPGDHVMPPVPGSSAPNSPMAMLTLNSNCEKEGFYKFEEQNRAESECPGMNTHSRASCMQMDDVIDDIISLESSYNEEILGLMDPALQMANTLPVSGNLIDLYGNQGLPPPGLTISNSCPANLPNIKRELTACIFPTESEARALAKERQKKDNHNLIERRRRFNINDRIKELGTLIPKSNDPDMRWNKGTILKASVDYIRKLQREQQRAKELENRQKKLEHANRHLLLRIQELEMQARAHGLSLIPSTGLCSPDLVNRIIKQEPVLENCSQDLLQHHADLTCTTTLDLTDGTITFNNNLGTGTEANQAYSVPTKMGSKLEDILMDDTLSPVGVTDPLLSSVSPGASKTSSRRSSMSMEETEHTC

INS1 = test: INS-1E survival protection against cytokine death – cell-based, luminescence, retest, dose response (AID 449756); assay type: functional; settings: Rattus norvegicus;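 note: cell death triggered by IL-1 beta plus TNF-alpha plus IFN-gamma mixture; protective hits raise ATP signal compared with cytokine alone wells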

Sequence of Beta-galactosidase (Q8VNN2 whole entry): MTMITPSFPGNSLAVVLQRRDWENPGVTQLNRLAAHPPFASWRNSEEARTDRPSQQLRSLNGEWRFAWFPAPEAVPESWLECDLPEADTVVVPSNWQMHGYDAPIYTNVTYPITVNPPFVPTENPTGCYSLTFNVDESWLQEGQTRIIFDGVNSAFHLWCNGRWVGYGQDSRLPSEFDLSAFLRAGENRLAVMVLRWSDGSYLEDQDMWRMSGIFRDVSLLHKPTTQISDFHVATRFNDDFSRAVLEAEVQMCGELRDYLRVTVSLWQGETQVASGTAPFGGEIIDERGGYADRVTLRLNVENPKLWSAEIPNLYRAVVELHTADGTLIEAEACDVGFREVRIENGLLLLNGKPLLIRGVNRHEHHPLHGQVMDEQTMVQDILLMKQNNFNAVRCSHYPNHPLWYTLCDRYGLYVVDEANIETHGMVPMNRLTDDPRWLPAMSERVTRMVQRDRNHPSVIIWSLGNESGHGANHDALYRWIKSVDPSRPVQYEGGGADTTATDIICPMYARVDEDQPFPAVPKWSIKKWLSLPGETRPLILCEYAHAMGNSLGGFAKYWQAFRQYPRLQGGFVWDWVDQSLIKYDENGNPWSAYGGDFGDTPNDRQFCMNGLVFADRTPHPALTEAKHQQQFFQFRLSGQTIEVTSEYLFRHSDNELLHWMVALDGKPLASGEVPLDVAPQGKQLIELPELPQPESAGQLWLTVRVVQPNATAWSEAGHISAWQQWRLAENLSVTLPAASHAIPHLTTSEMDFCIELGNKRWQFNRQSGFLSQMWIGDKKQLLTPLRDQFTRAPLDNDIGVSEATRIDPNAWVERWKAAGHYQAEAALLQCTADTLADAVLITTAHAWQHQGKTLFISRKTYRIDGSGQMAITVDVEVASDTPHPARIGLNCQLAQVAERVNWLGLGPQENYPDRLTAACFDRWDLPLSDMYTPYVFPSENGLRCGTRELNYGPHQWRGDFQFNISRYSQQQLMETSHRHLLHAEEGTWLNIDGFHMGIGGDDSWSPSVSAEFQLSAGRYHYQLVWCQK
Sequence of Peroxisome proliferator-activated receptor gamma/Nuclear receptor coactivator 2 (P37231 whole entry): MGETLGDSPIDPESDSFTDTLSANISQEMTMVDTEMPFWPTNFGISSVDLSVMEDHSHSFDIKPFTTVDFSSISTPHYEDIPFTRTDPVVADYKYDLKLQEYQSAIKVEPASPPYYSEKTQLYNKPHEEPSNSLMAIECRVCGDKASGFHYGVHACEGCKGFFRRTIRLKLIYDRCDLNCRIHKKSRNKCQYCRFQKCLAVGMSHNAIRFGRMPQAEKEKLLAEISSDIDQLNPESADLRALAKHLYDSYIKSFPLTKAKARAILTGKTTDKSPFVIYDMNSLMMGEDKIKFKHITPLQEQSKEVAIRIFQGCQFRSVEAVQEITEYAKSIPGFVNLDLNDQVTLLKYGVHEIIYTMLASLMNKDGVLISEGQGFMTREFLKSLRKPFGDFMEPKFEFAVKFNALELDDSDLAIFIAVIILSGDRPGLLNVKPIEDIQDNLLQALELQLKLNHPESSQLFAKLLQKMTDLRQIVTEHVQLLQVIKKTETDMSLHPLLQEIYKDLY
Sequence of Peroxisome proliferator-activated receptor gamma/Nuclear receptor coactivator 2 (Q15596 whole entry, further chain): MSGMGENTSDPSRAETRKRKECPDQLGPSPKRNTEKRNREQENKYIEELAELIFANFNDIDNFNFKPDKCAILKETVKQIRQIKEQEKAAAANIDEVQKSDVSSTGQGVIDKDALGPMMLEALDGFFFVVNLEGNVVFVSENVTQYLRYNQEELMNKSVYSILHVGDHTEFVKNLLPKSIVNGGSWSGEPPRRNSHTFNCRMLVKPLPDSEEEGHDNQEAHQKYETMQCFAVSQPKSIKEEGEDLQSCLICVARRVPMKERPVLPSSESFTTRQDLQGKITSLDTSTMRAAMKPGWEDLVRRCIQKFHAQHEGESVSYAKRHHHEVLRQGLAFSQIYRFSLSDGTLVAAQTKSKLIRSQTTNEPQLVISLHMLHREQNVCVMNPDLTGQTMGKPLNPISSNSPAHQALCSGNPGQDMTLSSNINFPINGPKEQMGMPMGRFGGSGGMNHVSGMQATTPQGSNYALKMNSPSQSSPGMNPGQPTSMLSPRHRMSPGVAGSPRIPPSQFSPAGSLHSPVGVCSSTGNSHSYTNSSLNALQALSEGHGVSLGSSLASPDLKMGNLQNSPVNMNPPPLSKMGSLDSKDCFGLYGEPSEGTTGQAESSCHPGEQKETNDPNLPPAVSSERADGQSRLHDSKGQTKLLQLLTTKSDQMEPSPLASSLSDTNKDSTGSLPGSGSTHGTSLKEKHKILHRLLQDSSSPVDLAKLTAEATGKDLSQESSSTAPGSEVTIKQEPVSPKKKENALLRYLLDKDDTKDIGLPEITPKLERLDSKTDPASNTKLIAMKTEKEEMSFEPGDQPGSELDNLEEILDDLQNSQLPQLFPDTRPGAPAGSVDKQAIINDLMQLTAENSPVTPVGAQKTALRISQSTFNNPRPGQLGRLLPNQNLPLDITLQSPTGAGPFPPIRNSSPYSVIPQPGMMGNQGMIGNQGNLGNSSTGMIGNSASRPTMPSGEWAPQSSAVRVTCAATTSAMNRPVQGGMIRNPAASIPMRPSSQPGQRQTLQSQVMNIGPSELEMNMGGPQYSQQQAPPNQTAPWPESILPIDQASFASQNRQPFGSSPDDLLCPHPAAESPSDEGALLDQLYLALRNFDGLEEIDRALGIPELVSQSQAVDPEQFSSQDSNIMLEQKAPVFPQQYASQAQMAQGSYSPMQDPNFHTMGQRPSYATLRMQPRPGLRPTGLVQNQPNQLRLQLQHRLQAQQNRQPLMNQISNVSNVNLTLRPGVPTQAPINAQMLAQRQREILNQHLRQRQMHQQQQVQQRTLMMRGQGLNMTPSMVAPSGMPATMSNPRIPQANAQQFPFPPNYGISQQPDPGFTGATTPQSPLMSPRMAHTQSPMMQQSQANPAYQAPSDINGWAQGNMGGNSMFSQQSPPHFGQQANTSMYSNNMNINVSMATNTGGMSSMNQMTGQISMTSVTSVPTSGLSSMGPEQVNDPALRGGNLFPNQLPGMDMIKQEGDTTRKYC
Sequence of Peroxisome proliferator-activated receptor gamma/Nuclear receptor coactivator 3 (P37231 whole entry): as the sequence (P37231 whole entry) above
Sequence of Peroxisome proliferator-activated receptor gamma/Nuclear receptor coactivator 3 (Q9Y6Q9 whole entry, further chain): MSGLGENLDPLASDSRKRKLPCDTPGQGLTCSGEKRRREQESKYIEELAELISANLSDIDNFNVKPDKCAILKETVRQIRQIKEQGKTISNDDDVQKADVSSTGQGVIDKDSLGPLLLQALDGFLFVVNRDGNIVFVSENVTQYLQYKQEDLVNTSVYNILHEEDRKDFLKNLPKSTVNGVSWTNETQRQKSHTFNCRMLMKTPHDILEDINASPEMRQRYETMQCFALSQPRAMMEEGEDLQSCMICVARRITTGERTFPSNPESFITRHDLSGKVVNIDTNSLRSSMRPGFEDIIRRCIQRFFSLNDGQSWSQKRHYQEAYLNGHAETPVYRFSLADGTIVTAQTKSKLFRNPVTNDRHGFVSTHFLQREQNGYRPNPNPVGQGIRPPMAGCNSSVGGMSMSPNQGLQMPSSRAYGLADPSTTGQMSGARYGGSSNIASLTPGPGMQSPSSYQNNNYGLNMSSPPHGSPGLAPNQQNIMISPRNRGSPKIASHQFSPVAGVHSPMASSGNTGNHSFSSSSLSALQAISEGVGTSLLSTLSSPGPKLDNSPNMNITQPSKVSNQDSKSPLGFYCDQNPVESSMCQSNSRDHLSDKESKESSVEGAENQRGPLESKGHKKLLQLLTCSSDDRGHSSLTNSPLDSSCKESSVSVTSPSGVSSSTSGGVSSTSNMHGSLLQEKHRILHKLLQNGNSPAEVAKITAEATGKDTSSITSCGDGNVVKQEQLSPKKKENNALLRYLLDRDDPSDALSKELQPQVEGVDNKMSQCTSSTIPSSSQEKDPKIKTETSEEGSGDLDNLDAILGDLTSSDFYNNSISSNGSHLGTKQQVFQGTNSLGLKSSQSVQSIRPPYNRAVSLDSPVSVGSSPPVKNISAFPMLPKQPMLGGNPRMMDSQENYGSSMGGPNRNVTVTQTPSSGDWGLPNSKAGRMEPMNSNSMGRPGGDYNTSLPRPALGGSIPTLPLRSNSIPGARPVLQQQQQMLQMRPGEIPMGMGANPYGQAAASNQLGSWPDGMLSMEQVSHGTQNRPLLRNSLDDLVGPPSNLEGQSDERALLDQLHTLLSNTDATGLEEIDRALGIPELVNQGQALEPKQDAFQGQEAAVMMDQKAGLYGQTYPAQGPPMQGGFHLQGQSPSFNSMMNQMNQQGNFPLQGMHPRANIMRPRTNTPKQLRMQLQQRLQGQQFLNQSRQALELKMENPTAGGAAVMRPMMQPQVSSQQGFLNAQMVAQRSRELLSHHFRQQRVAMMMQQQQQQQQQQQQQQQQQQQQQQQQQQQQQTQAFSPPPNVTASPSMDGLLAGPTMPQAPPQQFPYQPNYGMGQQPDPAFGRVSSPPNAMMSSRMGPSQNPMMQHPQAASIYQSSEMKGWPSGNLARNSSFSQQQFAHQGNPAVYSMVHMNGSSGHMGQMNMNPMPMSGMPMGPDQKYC

S=C(N/N=C/c1ccc(Cl)cc1)N1CCOCC1
EC50 (Beta-galactosidase): > 40 µM (inactive)
IC50 [1]: 7.99 µM (active)

CCCN1CCN(CCCNC(=O)c2cc3c(=O)n(C)c4ccccc4c3n2C)CC1
AC50 [2]: 34.7 µM (active)

COc1ccc(-c2cc(C#N)nc(N3CCNCC3)n2)cc1
EC50 [3]: 3.69 µM (active)
EC50 [4]: 15.2 µM (active)
EC50 [5]: > 60 µM (not active)
EC50 [6]: 9.93 µM (active)
IC50 (Bcl-2-related protein A1): > 20 µM (inactive)
IC50 [7]: 15.5 µM (active)
EC50 [8]: 1.88 µM (active)
IC50 [9]: 15.9 µM (active)

COc1ccc(CC(=O)Nc2ccc(-c3nc4cc(C)ccc4o3)c(O)c2)cc1OC
EC50 [10]: 27.8 µM (inactive)
EC50 [11]: > 79.4 µM (not active)
EC50 [12]: 24 µM (not active)

Cc1cc[n+](CC(=O)c2cccc([N+](=O)[O-])c2)c2ccccc12
EC50 (BJ [13]): 25.1 µM (active)
EC50 (BJ [14]): > 150 µM (not active)
EC50 (BJ [15]): > 150 µM (inconclusive)
EC50 [16]: > 150 µM (not active)
IC50 [17]: > 99 µM (inactive)

Cc1ccc2c(c1)C(=O)C(=O)N2c1ccc(Cl)cc1
EC50 (Beta-galactosidase): > 40 µM (inactive)
IC50 [1]: 33.2 µM (not active)

CCc1cc2c(=O)n(-c3ccccc3)c(=S)[nH]c2s1
EC50 [10]: > 79.4 µM (inactive)
EC50 [11]: > 79.4 µM (not active)
EC50 [12]: > 79.4 µM (not active)
IC50 [7]: > 20 µM (inactive)
AC50 (Cytochrome P450 2C19): inconclusive

COc1ccc2nc(C)cc(Nc3ccc(N4CCOCC4)cc3)c2c1
EC50 [3]: 1.79 µM (active)
EC50 [5]: 27 µM (active)
AC50 [2]: 17.4 µM (active)

OCC1(CCc2ccccc2)CCN(Cc2ccc3nsnc3c2)CC1
EC50 [10]: 42.2 µM (inactive)
EC50 [11]: > 79.4 µM (not active)
EC50 [12]: 29.1 µM (not active)
EC50 [18]: 8.41 µM (active)

C/C(=N\NC(=O)COc1ccccc1-c1ccccc1)c1ccccn1
EC50 [19]: 1.05 µM (active)
EC50 (Beta-galactosidase): > 40 µM (inactive)
IC50 [1]: 3.73 µM (active)
EC50 (Streptococcus): 4.08 µM (active)
AC50 [20]: 4.58 µM (active)
AC50 (INS1): 1.32 µM (active)

Cn1c(=O)cc(SCC(=O)N2CCCC2)c2ccccc21
EC50 [10]: > 79.4 µM (inactive)
EC50 [11]: > 79.4 µM (not active)
EC50 [12]: > 79.4 µM (not active)

CN1CCC(N(C)c2nc(-c3ccccc3)nc3ccccc23)CC1
AC50 [2]: 18.1 µM (active)

Cc1ccc(NCC(=O)c2ccccc2)cc1Cl
EC50 (Beta-galactosidase): > 40 µM (inactive)
IC50 [1]: 5.7 µM (active)

O=C(c1ccc(=O)oc1)N1CCOCC1
IC50 [17]: 3.67 µM (active)
